According to patent publication EP0319316A2, “Griseolic acid monoesters, their preparation and use” (SANKYO COMPANY LIMITED, priority 1987, dated 1989):
Structures can show the parent of a compound that is named as a salt. Where two headings read alike, the source gives them in different places.

Assays:
Balb/3T3 cells [1] = conditions: 10 min, 500 µM
normal rabbits = assay: Intraocular pressure reduction in normal rabbits (Experiment 1); format: in vivo, male New Zealand white rabbits
Experimental: In the following Experiments 1 to 6, the test animals used were male New Zealand white rabbits, each weighing about 2.5 kg, raised in a room where the room temperature, relative humidity and lighting time were controlled to be 23° C, 60% and from 07:00 to 19:00, respectively. The animals were chosen from those where no abnormalities could be detected in their eyes by observation with the naked eye. They were given water freely but feed was restricted. The reduction in intraocular pressure (IOP) caused by the compounds of the present invention was investigated using groups of three male New Zealand white rabbits for each test. The compounds of the present invention were employed as solutions dissolved in a 50 mM phosphate buffer (pH 7.0) containing 0.4% w/v of sodium chloride which were adjusted to concentrations of about 1% w/v of the compound under test. Both eyes of each rabbit were anesthetized with eye drops containing an ophthalmic anesthetic (0.4% Benoxil, available from Santen Pharmaceutical Co., Ltd.), and then the IOP in each eye was measured by means of a PTG (Pneumatonograph: Alcon). The test substance was then instilled into either the left eye or the right eye (the eye to be tested) in an amount of 50 µℓ (in the case of 0.5% timolol, a known compound used for comparison, the amount was 30 µℓ). Sixty minutes after this instillation, the same amount of the same test compound was instilled into the same eye of each test animal. On the other hand, no instillation was effected into the other eye of each animal, which was used as a control eye. The IOP values of both eyes were measured 30,60,90,120,150 and 180 minutes, after the initial instillation of the test substance. The IOP reduction at each time of measurement caused by each test substance was calculated from the following equation: Intraocular pressure reduction (Ap, mmHg) = (Ic - It) - (Ic° - It°), • in which: • Ic the IOP of the control eye; • It is the IOP of the test eye; • Ic° the IOP of the control eye immediately before the initial instillation; and • It° is the IOP of the test eye immediately before the initial instillation. The average value of the IOP reduction at each time of measurement was calculated to obtain the intraocular reduction (Ap, mmHg) of the test substance. The results are reported as a ratio of the Δp of the test substance to that of the known substance, 0.5% timolol, which is, therefore, taken as 1.

IOP = IOP lowering effect, area between IOP-time curves (Experiment 6); format: in vivo, male New Zealand white rabbits; conditions: 25 µℓ three times every 2 minutes, ratio of areas between IOP lines
Experimental: In the following Experiments 1 to 6, the test animals used were male New Zealand white rabbits, each weighing about 2.5 kg, raised in a room where the room temperature, relative humidity and lighting time were controlled to be 23° C, 60% and from 07:00 to 19:00, respectively. The animals were chosen from those where no abnormalities could be detected in their eyes by observation with the naked eye. They were given water freely but feed was restricted.
The compound under test was dissolved in 100 mM of a sodium phosphate buffer solution (pH 7.2) containing a small amount of a 0.1 N aqueous solution of sodium hydroxide. In the case of timolol maleate, a 0.5% w/v eye lotion (Timoptol 0.5%, Santen Pharm. Co.) was used as such.
The cornea of the rabbit was anesthetized by the topical application of one or two drops of 0.4% oxybuprocaine hydrochloride. The IOP was measured two or three times for each eye and the mean value was calculated and is reported as the IOP value. After the IOP of the rabbit eye had been measured, 25 µℓ of the sample solution was applied to center of the cornea of one eye three times every 2 minutes. The other eye was treated with the vehicle alone in a similar way. The IOP of both eyes was then measured.
IOP values obtained from both eyes were plotted against times after application and the area enclosed by the two IOP lines (with and without the active compound) was calculated. The IOP lowering effect of each sample was expressed as a ratio of the area described above to that of 0.5^0/o timolol.

[2] = test system: water load-induced elevation of intraocular pressure; assay: Effect on water load-induced elevation of intraocular pressure, water load test (Experiment 2); format: in vivo, male New Zealand white rabbits; conditions: 0.5% timolol maleate; water load test
Experimental: In the following Experiments 1 to 6, the test animals used were male New Zealand white rabbits, each weighing about 2.5 kg, raised in a room where the room temperature, relative humidity and lighting time were controlled to be 23° C, 60% and from 07:00 to 19:00, respectively. The animals were chosen from those where no abnormalities could be detected in their eyes by observation with the naked eye. They were given water freely but feed was restricted. The compound under test was dissolved in 100 mM of a sodium phosphate buffer solution (pH 7.2) containing a small amount of a 0.1 N aqueous solution of sodium hydroxide. In the case of timolol maleate, a 0.5% w/v eye lotion (Timoptol 0.5%, Santen Pharm. Co.) was used as such. Each rabbit was anesthetized with urethane (1.0 g/kg, i.v.), and the IOP values of both eyes were measured. Immediately thereafter, 50 µℓ of the sample solution was applied to one eye (test eye). To the other eye (control eye), 50 µℓ of the vehicle alone was applied. Ninety minutes after this application, the values of IOP were measured and then the water load test was performed as follows. Sixty ml/kg of tap water was given compulsorily per os to the anesthetized rabbit, and then the values of IOP for both eyes were measured with the passage of time. In this Experiment, the test compound was the compound of Example 19(b), i.e. 9'-(4-acetoxybenzyl) griseolate.

[3] = test system: Normal intraocular pressure; assay: Normal intraocular pressure lowering effect (Experiment 3); format: in vivo, male New Zealand white rabbits; conditions: 0.5% timolol maleate applied to the eye
Experimental: In the following Experiments 1 to 6, the test animals used were male New Zealand white rabbits, each weighing about 2.5 kg, raised in a room where the room temperature, relative humidity and lighting time were controlled to be 23° C, 60% and from 07:00 to 19:00, respectively. The animals were chosen from those where no abnormalities could be detected in their eyes by observation with the naked eye. They were given water freely but feed was restricted. The compound under test was dissolved in 100 mM of a sodium phosphate buffer solution (pH 7.2) containing a small amount of a 0.1 N aqueous solution of sodium hydroxide. In the case of timolol maleate, a 0.5% w/v eye lotion (Timoptol 0.5%, Santen Pharm. Co.) was used as such. The corneal surface was anesthetized by the application of oxybuprocain hydrochloride (Benoxil 0.4% solution, Santen Pharm. Co.), and the IOP was measured by means of an Alcon Applanation Pneumatograph (Japan Alcon) in rabbits. The measurements were carried out 2 or 3 times for each eye, and the mean value was calculated and is regarded as the value of IOP. After determination of the IOP, 25 µℓ of a sample solution was applied to one eye (test eye) three times every two minutes, and the same volume of the vehicle alone was applied to the other eye (control eye). The values of IOP of both eyes were measured with the passage of time. In this Experiment, the test compound was the compound of Example 19(b).

Balb/3T3 cells [4] = assay: cAMP accumulation in Balb/3T3 cells, radioimmunoassay (Experiment 5)
Experimental: Balb/3T3 cells were incubated in Dulbecco's modified Eagle medium (glucose-rich) containing 100/o v/v bovine fetal serum. […] The sample was then dissolved in a buffer solution prepared by the further addition of 4 mM of calcium chloride to the buffer solution mentioned above. If the sample was difficult to dissolve in water, it was dissolved first in dimethyl sulphoxide (DMSO) and then the resulting solution was diluted with the buffer (the final concentration of DMSO was determined to be 0.1%). The cell suspension was preincubated at 30° C for 5 minutes, and 100 µℓ of this suspension were added to 100 µℓ of the sample solution to initiate enzymatic reaction. After incubation at 30° C for 10 minutes, 20 µℓ of 1 N aqueous hydrochloric acid was added to stop the reaction. The reaction mixture was then centrifuged at 3000 rpm for 3 minutes to obtain 100 µℓ of the supernatant. Cyclic 3',5'-adenosine monophosphate (cAMP) contained in the supernatant was quantitatively analyzed by radioimmunoassay using a Yamasa cAMP radioimmunoassay kit YSI-7701. The CAMP accumulating effect is reported as the ratio between the value measured using a test compound and that measured in the control.

[5] = drug concentration 1.0 %, 50 µℓ instilled at 0 and 60 min, average over 30-180 min, ratio to 0.5% timolol taken as 1

CC(=O)Oc1ccc(COC(=O)C23C=C(CC(=O)O)OC2C(O)C(n2cnc4c(N)ncnc42)O3)cc1 (centres unmarked) [Example 36, 9'-(4-Acetoxybenzyl) 7'-deoxygriseolate] showed a cAMP accumulating effect (Balb/3T3 cells [1]) of 16.

With Cc1oc(=O)oc1COC(=O)C12C=C(C(O)C(=O)O)OC1C(O)C(n1cnc3c(N)ncnc31)O2 (centres unmarked) [Example 3, 9'-(5-Methyl-2-oxo-1,3-dioxolen-4-yl)methyl griseolate] the “Intraocular pressure reduction relative to 0.5% timolol” value (normal rabbits; [5]) was 0.90.

In the case of CC(=O)Oc1ccccc1C=CCOC(=O)C12C=C(C(O)C(=O)O)OC1C(O)C(n1cnc3c(N)ncnc31)O2 (centres unmarked) [Example 31(b), 9'-(2-Acetoxycinnamyl) griseolate], the “IOP Lowering Effect (Ratio to 0.5% timolol)” value (IOP; Concentration 0.5 %) is reported as 1.88.

CC(C)(C)NC[C@H](O)COc1nsnc1N1CCOCC1 [timolol maleate, reference compound] was tested, and the “difference of IOP between the control eye and the test eye” value [2] was “no significant difference” and the “significant lowering of IOP” value [3] was “only observed 2 hours after application”.

With “9'-[1-(Isopropoxycarbonyloxy)ethyl] griseolate [Example 2]” the “Intraocular pressure reduction relative to 0.5% timolol” value (normal rabbits; [5]) was 1.24.

In the case of COc1cc(COC(=O)C(O)C2=CC3(C(=O)O)OC(n4cnc5c(N)ncnc54)C(O)C3O2)ccc1OC(C)=O (centres unmarked) [Example 35, 8'-(4-Acetoxy-3-methoxybenzyl) griseolate], the cAMP accumulating effect (Balb/3T3 cells [1]) is reported as 18.

In the case of CC(C)(C)C(=O)Oc1ccc(COC(=O)C23C=C(C(O)C(=O)O)OC2C(O)C(n2cnc4c(N)ncnc42)O3)cc1 (centres unmarked) [Example 21(b), 9'-(4-Pivaloyloxybenzyl) griseolate], the cAMP accumulating effect (Balb/3T3 cells [1]) is reported as 8.5.

With CCCC(=O)OC(C)OC(=O)C12C=C(C(O)C(=O)O)OC1C(O)C(n1cnc3c(N)ncnc31)O2 (centres unmarked) [Example 7, 9'-(1-Butyryloxyethyl) griseolate] the “Intraocular pressure reduction relative to 0.5% timolol” value (normal rabbits; [5]) was 0.79.

Nc1ncnc2c1ncn2[C@@H]1OC2=C[C@@](C(=O)O)(C(O)C(=O)O)O[C@H]2[C@H]1O (some centres unmarked) [Griseolic acid] was tested, and the fold induction at 500 µM (Balb/3T3 cells [4]; Mus musculus, BALB/3T3, 10 min, read-out: cAMP accumulating effect) was 3.5 and the “Intraocular pressure reduction relative to 0.5% timolol” value (normal rabbits; [5]) was -0.12.

With “9'-(4-Acetoxy-3-methoxybenzyl) griseolate [Example 26(b)]” the “IOP Lowering Effect (Ratio to 0.5% timolol)” value (IOP; Concentration 0.5 %) was 3.29.

“8'-Pivaloyloxyrnethyl griseolate [Example 10]” was tested, and the “Intraocular pressure reduction relative to 0.5% timolol” value (normal rabbits; [5]) was 1.08.

With CC(C)C(=O)Oc1ccc(COC(=O)C2=CC3(C(O)C(=O)O)OC(n4cnc5c(N)ncnc54)C(O)C3O2)cc1 (centres unmarked) [Example 23(b), 9'-(4-lsobutyryloxybenzyl) griseolate] the “IOP Lowering Effect (Ratio to 0.5% timolol)” value (IOP; Concentration 0.03 %) was 1.62.

For CC(C)(C)NC[C@H](O)COc1nsnc1N1CCOCC1 [timolol, reference compound], the “Intraocular pressure reduction relative to 0.5% timolol” value (normal rabbits; drug concentration 0.5 %, 30 µℓ instilled at 0 and 60 min, reference, taken as 1) was 1.0.

CC(=O)Oc1ccc(COC(=O)C(O)C2=CC3(C(=O)O)OC(n4cnc5c(N)ncnc54)C(O)C3O2)cc1 (centres unmarked) [Example 34, 8'-(4-Acetoxybenzyl) griseolate] showed a cAMP accumulating effect (Balb/3T3 cells [1]) of 16.

With “9'-(4-Acetoxy-3-methoxybenzyl) 7'-deoxygriseolate [Example 37]” the cAMP accumulating effect (Balb/3T3 cells [4]; Concentration 500 µM, ratio of value with test compound to control, 30° C, 10 minutes) was 16.

In the case of “9'-(3,4-Diacetoxybenzyl) griseolate [Example 22(b)]”, the cAMP accumulating effect (Balb/3T3 cells [1]) is reported as 8.3.

With “9'-Pivaloyloxymethyl griseolate [Example 1]” the “Intraocular pressure reduction relative to 0.5% timolol” value (normal rabbits; [5]) was 2.38.

With “9'-(1-Pivaloyloxyethyl) griseolate [Example 5]” the “Intraocular pressure reduction relative to 0.5% timolol” value (normal rabbits; [5]) was 0.92.
